Legend:
Type in all cases: in vivo
Euphorbia heterophylla = experiment: Field trial with maize, herbicidal action; conditions: for Herbicidal action (%) against Euphorbia heterophylla: application 6-leaf stage, scoring 44 days after application; for Herbicidal action (%) against EPHHL: application 4-leaf stage, scoring 6 weeks after application
Description: (§1) Transgenic maize plants with a resistance to one or more herbicides (A) together with typical weed plants were grown in the open on 2×5 m plots under natural field conditions; alternatively, weed infestation occurred naturally when the maize plants were grown.
(§2) […] The damage to, and the development of, all aerial parts of the plants was recorded. Scoring was done on the basis of a percentage sale (100% action=all plants destroyed; 50% action=50% of the plants and green parts of the plants destroyed; 0% action=no recognizable effect=like control plot. The mean of the score values of in each case 4 plots was calculated.

[1] = test system: Mais LL (Liberty-Link-Mais, maize tolerant or resistant to glufosinate-ammonium); experiment: Field trial, damage to transgenic maize (tolerance by crop plants)
Description: as §1
The damage to, and the development of, all aerial parts of the plants was recorded.
Abbreviations generally used in the tables: • g of a.s./ha=gram of active substance (100% active substance) per hectare • E^A=Total of the herbicidal effects of the individual applications • E^C Colby's expected value (cf. scoring in Table 1) • “Mais LL”=®Liberty-Link-Mais, maize which is tolerant or resistant to glufosinate-ammonium, […]

Portulaca oleracea = experiment: Field trial with maize, herbicidal action
Description: as §1, §2

Avena fatua = experiment: Field trial with maize, herbicidal action; conditions: application 2- to 4-leaf stage, scoring 28 days after application
Description: as §1
(§3) 2, 4, 6 and 8 weeks after the application, the herbicidal activity of the active substances or active substance mixtures was scored visually with reference to the treated plots in comparison to untreated control plots. The damage to, and the development of, all aerial parts of the plants was recorded. Scoring was done on the basis of a percentage sale (100% action=all plants destroyed; 50% action=50% of the plants and green parts of the plants destroyed; 0% action=no recognizable effect=like control plot. The mean of the score values of in each case 4 plots was calculated.

Brachiaria plantaginea = experiment: Field trial with maize, herbicidal action; conditions: 1500 g of a.s./ha; application 2-leaf stage; scoring 28 days after application
Description: as §1, §3

Digitaria sanguinalis = experiment: Field trial with maize, herbicidal action; conditions: 300 g of a.s./ha; application 5-6-leaf stage; scoring 11 days after application
Description: as §1, §2

Panicum dichotomiflorum = experiment: Field trial with maize, herbicidal action; conditions: 300 g of a.s./ha; application 5-6-leaf stage; scoring 11 days after application
Description: as §1, §2

Sorghum bicolor = experiment: Field trial with maize, herbicidal action; conditions: pre-emergence application, scoring 46 days after pre-emergence application
Description: as §1, §3

Echinochloa crus-galli = experiment: Field trial with maize, herbicidal action
Description: as §1, §2

Lamium amplexicaule = experiment: Field trial with maize, herbicidal action; conditions: application 1-leaf stage, scoring 17 days after application
Description: as §1, §2

Convolvulus arvensis = experiment: Field trial with maize, herbicidal action; conditions: application 3- to 4-leaf stage, scoring 28 days after application
Description: as §1, §3

Commelina benghalensis = experiment: Field trial with maize, herbicidal action; conditions: application 3-leaf stage, scoring 42 days after application
Description: as §1, §3

Sorghum halepense = experiment: Field trial with maize, herbicidal action; conditions: application 4-leaf stage, scoring 28 days after application
Description: as §1, §3

Sinapis arvensis = experiment: Field trial with maize, herbicidal action; conditions: 15 g of a.s./ha; application 4- to 5-leaf stage; scoring 28 days after application
Description: as §1, §3

Fagopyrum esculentum = experiment: Field trial with maize, herbicidal action; conditions: application 3- to 4-leaf stage, scoring 24 days after application
Description: as §1, §2

Galium aparine = experiment: Field trial with maize, herbicidal action; conditions: application 3- to 4-leaf stage, scoring 24 days after application
Description: as §1, §2

## CS(=O)(=O)c1ccc(C(=O)C2C(=O)CCCC2=O)c(Cl)c1 [(B1.14), 2-(2-chloro-4-mesylbenzoyl)cyclohexane-1,3-dione]
Euphorbia heterophylla; 200 g of a.s./ha
  Herbicidal action (%) against Euphorbia heterophylla: 60%
Euphorbia heterophylla; 300 g of a.s./ha
  Herbicidal action (%) against Euphorbia heterophylla: 68%
Euphorbia heterophylla; 400 g of a.s./ha
  Herbicidal action (%) against Euphorbia heterophylla: 75%
[1]; 200 g of a.s./ha, application 6-leaf stage
  Damage to Mais LL in %: 0%
[1]; 300 g of a.s./ha, application 6-leaf stage
  Damage to Mais LL in %: 0%
[1]; 400 g of a.s./ha, application 6-leaf stage
  Damage to Mais LL in %: 0%

## CCc1cccc(C)c1N(C(=O)CCl)C(C)COC (stereo not shown) [(B1.5), 2-chloro-N-(2-ethyl-6-methylphenyl)-N-(2-methoxy-1-methylethyl)-acetamide]
Portulaca oleracea; 1680 g of a.s./ha, application 2- to 4-leaf stage, scoring 28 days after application
  Herbicidal action (%) against Portulaca oleracea: 35%
Avena fatua; 1680 g of a.s./ha
  Herbicidal action (%) against Avena fatua: 40%
Brachiaria plantaginea
  Herbicidal action (%) against Brachiaria plantaginea: 70%

## COc1c(Cl)ccc(Cl)c1C(=O)O [(B3.2), 3,6-dichloro-o-anisic acid]
Digitaria sanguinalis
  Herbicidal action (%) against Digitaria sanguinalis: 88%
Panicum dichotomiflorum
  Herbicidal action (%) against Panicum dichotomiflorum: 0%
[1]; in vivo
  Damage to Mais LL in %: 0%

## CS(=O)(=O)c1cc(C(F)(F)F)ccc1C(=O)c1cnoc1C1CC1 [(B2.5), (5-cyclopropyl-4-isoxazolyl)[2-(methylsulfonyl)-4-(trifluoromethyl)phenyl]-methasone]
Sorghum bicolor; 25 g of a.s./ha
  Herbicidal action (%) against Sorghum bicolor: 20%
Sorghum bicolor; 50 g of a.s./ha
  Herbicidal action (%) against Sorghum bicolor: 40%
Sorghum bicolor; 100 g of a.s./ha
  Herbicidal action (%) against Sorghum bicolor: 75%

## CCOCN(C(=O)CCl)c1c(C)cccc1CC [(B1.4), 2-chloro-N-(ethoxymethyl)-N-(2-ethyl-6-methylphenyl)acetamide]
Echinochloa crus-galli; 375 g of a.s./ha, application 3- to 4-leaf stage, scoring 42 days after application
  Herbicidal action (%) against Echinochloa crus-galli: 10%
Echinochloa crus-galli; 750 g of a.s./ha, application 3- to 4-leaf stage, scoring 42 days after application
  Herbicidal action (%) against Echinochloa crus-galli: 40%
Echinochloa crus-galli; 1500 g of a.s./ha, application 3- to 4-leaf stage, scoring 42 days after application
  Herbicidal action (%) against Echinochloa crus-galli: 45%

## O=C(O)CNCP(=O)(O)O [(A2.1), N-(phosphonomethyl)glycine]
Lamium amplexicaule; 400 g of a.s./ha
  Herbicidal action (%) against Lamium amplexicaule: 75%
Lamium amplexicaule; 600 g of a.s./ha
  Herbicidal action (%) against Lamium amplexicaule: 90%

## CCCCCCCCSC(=O)Oc1cc(Cl)nnc1-c1ccccc1 [(B2.2), 6-chloro-3-phenylpyridazin-4-yl S-octyl thiocarbonate]
Convolvulus arvensis; 900 g of a.s./ha
  Herbicidal action (%) against Convolvulus arvensis: 40%

## N#Cc1cc(Br)c(O)c(Br)c1 [(B3.1), 3,5-dibromo-4-hydroxybenzonitrile]
Portulaca oleracea; 360 g of a.s./ha, application 2- to 4-leaf stage, scoring 28 days after application
  Herbicidal action (%) against Portulaca oleracea: 25%
Portulaca oleracea; 360 g of a.s./ha, application 6-leaf stage, scoring 26 days after application
  Herbicidal action (%) against Portulaca oleracea: 25%
Avena fatua; 360 g of a.s./ha
  Herbicidal action (%) against Avena fatua: 10%

## COCC(C)N(C(=O)CCl)c1c(C)csc1C (stereo not shown) [(B1.12), 2-chloro-N-(2,4-dimethyl-3-thienyl)-N-(2-methoxy-1-methylethyl)acetamide]
Convolvulus arvensis; 900 g of a.s./ha
  Herbicidal action (%) against Convolvulus arvensis: 30%

## O=C(O)COc1ccc(Cl)cc1Cl [(B3.3), 2,4-dichlorophenoxyacetic acid]
Convolvulus arvensis; 500 g of a.s./ha
  Herbicidal action (%) against Convolvulus arvensis: 20%

## CCc1cccc(CC)c1N(COC)C(=O)CCl [(B1.6), 2-chloro-N-(2,6-diethylphenyl)-N-(methoxymethyl)acetamide]
[1]; 1920 g of a.s./ha, application 3-leaf stage, Table 11, head names no quantity
  Mais LL: 0
Commelina benghalensis; 1920 g of a.s./ha
  Herbicidal action (%) against Commelina benghalensis: 37%

## CC(C)N(C(=O)COc1nnc(C(F)(F)F)s1)c1ccc(F)cc1 [(B1.13), 4′-fluoro-N-isopropyl-2-(5-trifluoromethyl-1,3,4-thiadiazol-2-yloxy)acetanilide]
Echinochloa crus-galli; 125 g of a.s./ha, application 3-leaf stage, scoring 28 days after application
  Herbicidal action (%) against Echinochloa crus-galli: 25%
Echinochloa crus-galli; 250 g of a.s./ha, application 3-leaf stage, scoring 28 days after application
  Herbicidal action (%) against Echinochloa crus-galli: 30%
Echinochloa crus-galli; 500 g of a.s./ha, application 3-leaf stage, scoring 28 days after application
  Herbicidal action (%) against Echinochloa crus-galli: 55%

## O=C(Nc1nc(OC(F)F)cc(OC(F)F)n1)NS(=O)(=O)c1ccccc1C(=O)O [(B1.11), 2-[4,6-bis(difluoromethoxy)pyrimidin-2-ylcarbamoylsulfamoyl]benzoic acid]
Sorghum halepense; 10 g of a.s./ha
  Herbicidal action (%) against Sorghum halepense: 62%
Sorghum halepense; 20 g of a.s./ha
  Herbicidal action (%) against Sorghum halepense: 93%

## COc1nc(C)nc(NC(=O)NS(=O)(=O)c2ccsc2C(=O)O)n1 [(B3.6), 3-[[[[(4-methoxy-6-methyl-1,3,5-triazin-2-yl)amino]carbonyl]amino]sulfonyl]-2-thiophenecarboxylic acid]
Sinapis arvensis
  Herbicidal action (%) against Sinapis arvensis: 73%

## Cc1cc(Cl)ccc1OCC(=O)O [(B3.9), (4-chloro-2-methylphenoxy)acetic acid]
Convolvulus arvensis; 500 g of a.s./ha
  Herbicidal action (%) against Convolvulus arvensis: 60%

## COc1nc(NC(=O)NS(=O)(=O)c2ccccc2C(F)(F)F)nc(C(F)(F)F)n1 [(B3.8), N-[[[4-methoxy-6-(trifluoromethyl)-1,3,5-triazin-2-yl)amino]-carbonyl]-2-(trifluoromethyl)benzenesulfonamide]
Fagopyrum esculentum; 15 g of a.s./ha
  Herbicidal action (%) against Fagopyrum esculentum: 30%
Fagopyrum esculentum; 30 g of a.s./ha
  Herbicidal action (%) against Fagopyrum esculentum: 60%
Fagopyrum esculentum; 60 g of a.s./ha
  Herbicidal action (%) against Fagopyrum esculentum: 78%
Galium aparine; 15 g of a.s./ha
  Herbicidal action (%) against Galium aparine: 45%
Galium aparine; 30 g of a.s./ha
  Herbicidal action (%) against Galium aparine: 65%
Galium aparine; 60 g of a.s./ha
  Herbicidal action (%) against Galium aparine: 85%

## O=C(O)c1nc(Cl)ccc1Cl [(B3.4), 3,6-dichloro-2-pyridinecarboxylic acid]
Echinochloa crus-galli; 100 g of a.s./ha, application 3-leaf stage, scoring 21 days after application
  Herbicidal action (%) against Echinochloa crus-galli: 15%
[1]; 100 g of a.s./ha, application 3-leaf stage, Table 14, head names no quantity
  Mais LL: 0

## CCNc1nc(Cl)nc(NC(C)(C)C#N)n1 [(B1.1), 2-(4-chloro-6-ethylamino-1,3,5-triazin-2-ylamino)-2-methylpropionitrile]
Portulaca oleracea; 2242 g of a.s./ha, application 2- to 4-leaf stage, scoring 28 days after application
  Herbicidal action (%) against Portulaca oleracea: 45%
Avena fatua; 2242 g of a.s./ha
  Herbicidal action (%) against Avena fatua: 35%

## CS(=O)(=O)c1ccc(C(=O)C2C(=O)CCCC2=O)c([N+](=O)[O-])c1 [(B1.16), 2-(4-mesyl-2-nitrobenzoyl)cyclohexane-1,3-dione]
Euphorbia heterophylla; 50 g of a.s./ha
  Herbicidal action (%) against EPHHL: 60%
Euphorbia heterophylla; 100 g of a.s./ha
  Herbicidal action (%) against EPHHL: 58%
Euphorbia heterophylla; 150 g of a.s./ha
  Herbicidal action (%) against EPHHL: 70%
[1]; 50 g of a.s./ha, application 4-leaf stage
  Damage to Mais LL in %: 0%
[1]; 100 g of a.s./ha, application 4-leaf stage
  Damage to Mais LL in %: 0%
[1]; 150 g of a.s./ha, application 4-leaf stage
  Damage to Mais LL in %: 0%

## CCc1cnc(C2=NC(C)(C(C)C)C(=O)N2)c(C(=O)O)c1 (stereo not shown) [(A3.2), imazethapyr]
[1]; in vivo
  Mais LL: 0
Commelina benghalensis; 100 g of a.s./ha
  Herbicidal action (%) against Commelina benghalensis: 73%

## Cc1ccn2nc(S(=O)(=O)Nc3c(F)cccc3F)nc2n1 [(B2.8)]
Echinochloa crus-galli; 50 g of a.s./ha, application 3-leaf stage, scoring 21 days after application
  Herbicidal action (%) against Echinochloa crus-galli: 40%
Echinochloa crus-galli; 70 g of a.s./ha, application 3-leaf stage, scoring 21 days after application
  Herbicidal action (%) against Echinochloa crus-galli: 65%

From patent US8772199B2, “Herbicidal compositions for tolerant or resistant maize crops” (Bayer Intellectual Property GmbH, priority 1998, dated 2014)
